{"source": "patent US11406575B2", "about": "“Water-free/anhydrous cream shampoo” (Henkel IP & Holding GmbH, priority 2020, dated 2022)", "assay": "Viscosity, Brookfield RVT Viscometer, Spindle F (Example 6)", "format": "physicochemical", "details": "compared with SCI", "procedure": "Compositions of the inventive shampoos can have a viscosity ranging from 120,000 cps to 3,000,000 cps. Viscosity can be measured using suitable viscometer known to those of skill in the art. The preferred viscosity range is 1,000,000 cps-2,000,000 cps using a Brookfield RVT Viscometer, Spindle F at 0.5 rpm for 90 sec, with around 1,500,000 cps being the most preferred.\nThe viscosity of various combinations of propanediol, SCI and SLMI was measured using a Brookfield RVT Viscometer, Spindle F.", "data": [{"compound": "CCCCCCCCCCCC(=O)OC(C)CS(=O)(=O)[O-].[Na+]", "note": "(stereo not shown) [SLMI, sodium lauroyl methyl isethionate]", "values": [{"measurement": "Effect of an increase in the percentage of SLMI on viscosity of the shampoo compositions", "value": "significantly increases the viscosity"}]}]}
